PubChem BioAssay AID2039 (NMMLSC, 2009)
The source made the active and inactive calls. How the calls were made is not given here.

The molecules below were run against Ras-related C3 botulinum toxin substrate 1 (Homo sapiens) (UniProt P63000) (assay: activated mutant Rac1 GTP binding inhibitors, SAR follow-up, biochemical, additional analogs, multiplex bead flow cytometry (AID 2039)). Conditions: Multiplex flow cytometry bead GTP-binding assay.

Row | Compound | EC50
1 | O=C1C(c2c(O)[nH]c3ccccc23)=Nc2ccccc21 | inactive
2 | O=Nc1c(-c2c(O)[nH]c3ccc(Br)cc23)[nH]c2ccccc12 | inactive
3 | CC(C(=O)O)c1cccc(Oc2ccccc2)c1 (configuration not stated) | inactive
4 | N#Cc1c(-c2ccc(Cl)cc2)c(C(=O)c2ccccc2)n(S(=O)(=O)c2ccc([N+](=O)[O-])cc2)c1N | inactive
5 | O=C1Nc2cccc(Br)c2/C1=C1/Cc2ccccc2C1=O | inactive
6 | COc1ccc(-c2c(C#N)c(N)n(S(C)(=O)=O)c2C(=O)c2ccccc2)cc1Br | inactive
7 | CC1=C(CC(=O)O)c2cc(F)ccc2/C1=C/c1ccc(S(C)=O)cc1 (configuration not stated) | inactive
8 | O=C1N=c2ccccc2=C1c1[nH]c(=S)[nH]c1O | inactive
9 | O=Nc1c(-c2c(O)[nH]c3c(F)cccc23)[nH]c2ccccc12 | inactive
10 | COc1cc(-c2c(C#N)c(N)n(S(=O)(=O)c3c(C(C)C)cc(C(C)C)cc3C(C)C)c2C(=O)c2ccccc2)cc(OC)c1OC | inactive
11 | CC(=O)Oc1ccccc1C(=O)O | inactive
12 | O=C(C#Cc1ccccc1)c1ccc([N+](=O)[O-])cc1 | 8.37 µM
13 | O=C1Nc2ccccc2/C1=C1/Cc2ccccc2C1=O | inactive
14 | CSc1ccc(/C=C2/C(C)=C(CC(=O)O)c3cc(F)ccc32)cc1 | inactive
15 | COc1ccc2cc(CC(=O)O)ccc2c1 | inactive
16 | O=Nc1c(-c2c(O)[nH]c3c(Cl)cccc23)[nH]c2ccccc12 | inactive
17 | COc1ccc(S(=O)(=O)n2c(N)c(C#N)c(-c3cncc(Br)c3)c2C(=O)c2ccccc2)cc1 | inactive
18 | O=C1N=c2ccccc2=C1c1[nH]c(=O)[nH]c1O | inactive
19 | O=C1C(c2c(O)[nH]c3c(Cl)cccc23)=Nc2ccccc21 | inactive
20 | O=C(C#Cc1ccccc1)c1ccccc1[N+](=O)[O-] | inactive
21 | CCCCS(=O)(=O)n1c(N)c(C#N)c(-c2cc(OC)c(OC)c(OC)c2)c1C(=O)c1ccccc1 | inactive
22 | O=C1C(c2c(O)[nH]c3c(Br)cccc23)=Nc2ccccc21 | inactive
23 | O=C1Nc2c(Br)cccc2/C1=C1/Cc2ccccc2C1=O | inactive
24 | O=C(C#Cc1ccccc1)c1ccccc1 | inactive
25 | COc1ccc(S(=O)(=O)n2c(N)c(C#N)c(-c3cc(Br)c(OC)c(OC)c3)c2C(=O)c2ccccc2)cc1 | inactive
26 | O=Nc1c(-c2c(O)[nH]c3ccccc23)[nH]c2ccccc12 | inactive
27 | COc1ccc(S(=O)(=O)n2c(N)c(C#N)c(-c3ccccc3)c2C(=O)c2ccc(Br)cc2)cc1 | inactive
28 | O=C1C(c2c(O)[nH]c3ccc(Br)cc23)=Nc2ccccc21 | inactive
29 | O=Nc1c(-c2c(O)[nH]c3c(Br)cccc23)[nH]c2ccccc12 | inactive
30 | O=C1C(c2c(O)[nH]c3c(F)cccc23)=Nc2ccccc21 | inactive

Same assay, conditions: Multiplex flow cytometry bead GTP-binding assay, measured here: Ki for Rac1 nucleotide binding

Row | Compound | Ki
31 | O=Nc1c(-c2c(O)[nH]c3ccc(Br)cc23)[nH]c2ccccc12 | 2.98 µM
32 | N#Cc1c(-c2ccc(Cl)cc2)c(C(=O)c2ccccc2)n(S(=O)(=O)c2ccc([N+](=O)[O-])cc2)c1N | 0.54 µM
33 | CC1=C(CC(=O)O)c2cc(F)ccc2/C1=C/c1ccc(S(C)=O)cc1 (configuration not stated) | 4.24 µM
34 | O=C1N=c2ccccc2=C1c1[nH]c(=S)[nH]c1O | 0.64 µM
35 | O=Nc1c(-c2c(O)[nH]c3c(F)cccc23)[nH]c2ccccc12 | 2.87 µM
36 | COc1cc(-c2c(C#N)c(N)n(S(=O)(=O)c3c(C(C)C)cc(C(C)C)cc3C(C)C)c2C(=O)c2ccccc2)cc(OC)c1OC | 6.05 µM
37 | O=C(C#Cc1ccccc1)c1ccc([N+](=O)[O-])cc1 | 0.76 µM
38 | CSc1ccc(/C=C2/C(C)=C(CC(=O)O)c3cc(F)ccc32)cc1 | 4.85 µM
39 | COc1ccc(S(=O)(=O)n2c(N)c(C#N)c(-c3cncc(Br)c3)c2C(=O)c2ccccc2)cc1 | 1.06 µM
40 | O=C1N=c2ccccc2=C1c1[nH]c(=O)[nH]c1O | 1.06 µM
41 | O=C1C(c2c(O)[nH]c3c(Br)cccc23)=Nc2ccccc21 | 2.51 µM
42 | O=C1C(c2c(O)[nH]c3ccc(Br)cc23)=Nc2ccccc21 | 1.11 µM
